# Literature values in patent US20240368063A1, “PREPARATION METHOD, IN[…], AND SYNTHESIS METHOD FOR A CLASS OF ANTHRACENE-DERIVED TOXINS IN ORGANIC CHEMISTRY” (WUYAN PHARMACEUTICAL TECHNOLOGY (SHANGHAI) CO., LTD, priority 2022, published 2024).
# How the values were obtained:
# [1] = system: human tumor cell lines; details: various tumor cell lines, including cells resistant to anthracyclines
# [2] = system: topoisomerase II; details: at a concentration of 100 μM
structure (smiles),measurement,setting,value
COc1cccc2c1C(=O)c1c(O)c3c(c(O)c1C2=O)C[C@@](O)(C(=O)CO)C[C@@H]3O[C@H]1C[C@H]2[C@H](O[C@@H]3[C@@H](OC)OCCN32)[C@H](C)O1 [PNU-159682],cytotoxicity compared to anthracyclines,[1],three orders of magnitude higher cytotoxicity
same,inhibition of the activity of topoisomerase II,[2],weakly inhibits
